# Measured values published in ChEMBL document CHEMBL4425165, “Discovery of Pyrazolo[1,5-a]pyrimidine TTK Inhibitors: CFI-402257 is a Potent, Selective, Bioavailable Anticancer Agent” (ACS Med Chem Lett, 2016).
# Key:
# MDA-MB-468 = assay: Growth inhibition of human MDA-MB-468 cells measured after 5 days by sulforhodamine B assay; type: functional; conditions: MDA-MB-468, 120 h
# [1] = Solubility of the compound at pH 2; type: physicochemical; conditions: buffer
# [2] = Dissociation constant, pKa of the compound; type: physicochemical
# OVCAR-3 = assay: Growth inhibition of human OVCAR3 cells measured after 5 days by sulforhodamine B assay; type: functional; conditions: OVCAR-3, 120 h
# [3] = target: T1, Dual specificity protein kinase TTK (Homo sapiens, UniProt P33981)
# T1 sequence (P33981 whole entry): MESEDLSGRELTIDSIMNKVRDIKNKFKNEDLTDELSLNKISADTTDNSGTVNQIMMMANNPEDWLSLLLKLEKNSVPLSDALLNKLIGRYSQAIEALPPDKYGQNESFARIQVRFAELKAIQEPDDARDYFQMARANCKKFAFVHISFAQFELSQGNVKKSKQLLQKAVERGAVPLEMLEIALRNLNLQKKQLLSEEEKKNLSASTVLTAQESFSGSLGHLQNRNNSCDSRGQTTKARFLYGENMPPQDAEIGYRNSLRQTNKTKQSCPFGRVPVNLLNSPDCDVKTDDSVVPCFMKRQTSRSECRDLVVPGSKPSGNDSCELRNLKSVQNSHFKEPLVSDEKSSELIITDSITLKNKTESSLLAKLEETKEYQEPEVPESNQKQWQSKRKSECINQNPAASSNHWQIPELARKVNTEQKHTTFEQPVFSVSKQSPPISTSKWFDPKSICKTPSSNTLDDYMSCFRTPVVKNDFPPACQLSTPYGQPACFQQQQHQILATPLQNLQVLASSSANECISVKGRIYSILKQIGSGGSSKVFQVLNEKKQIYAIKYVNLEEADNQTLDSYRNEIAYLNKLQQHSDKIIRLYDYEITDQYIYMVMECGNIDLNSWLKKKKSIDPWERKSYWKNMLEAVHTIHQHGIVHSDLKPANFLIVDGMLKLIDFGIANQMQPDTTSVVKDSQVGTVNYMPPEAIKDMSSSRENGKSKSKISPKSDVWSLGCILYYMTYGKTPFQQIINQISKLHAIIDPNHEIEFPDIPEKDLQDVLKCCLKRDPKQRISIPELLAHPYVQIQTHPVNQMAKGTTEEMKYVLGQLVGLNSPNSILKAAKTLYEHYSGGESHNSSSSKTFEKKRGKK
# [4] = Solubility of the compound at pH 7.4; type: physicochemical; conditions: buffer
# HCT-116 [5] = assay: Growth inhibition of human HCT116 cells measured after 5 days by sulforhodamine B assay; type: functional; conditions: HCT-116, 120 h
# [6] = AUC in athymic CD-1 nude mouse at 10 mg/kg, po by LC-MS/MS analysis; type: ADME, organism-based; conditions: in vivo
# [7] = Cmax in athymic CD-1 nude mouse at 10 mg/kg, po by LC-MS/MS analysis; type: ADME, organism-based; parameters: dose 10 mg/kg, route oral; conditions: in vivo
# [8] = Toxicity in po dosed athymic nude mouse; type: organism-based; conditions: in vivo
# Cytochrome P450 3A4 = Cytochrome P450 3A4 (Homo sapiens, UniProt P08684); assay: Inhibition of CYP3A4 (unknown origin) preincubated for 10 mins followed by addition of BFC as substrate measured after 10 mins in presence of NADP by fluorescence analysis; type: ADME
# [9] = Bioavailability in Sprague-Dawley rat at 5 mg/kg by LC-MS/MS analysis; type: ADME, organism-based; conditions: in vivo
# HCT-116 [10] = assay: Antitumor activity against human HCT116 cells xenografted in athymic nude mouse assessed as tumor growth inhibition at 15 mg/kg, po qd measured on day 21; type: functional; conditions: HCT-116, po, 504 h, read-out: TGI
# [11] = Clearance in beagle dog at 1 mg/kg, iv or 5 mg/kg, po by LC-MS/MS analysis; type: ADME, organism-based, Canis lupus familiaris; conditions: in vivo
# [12] = AUC (0 to infinity) in beagle dog at 5 mg/kg, po by LC-MS/MS analysis; type: ADME, organism-based, Canis lupus familiaris; parameters: dose 5 mg/kg, route oral, time infinity; conditions: in vivo
# [13] = Bioavailability in beagle dog at 5 mg/kg by LC-MS/MS analysis; type: ADME, organism-based, Canis lupus familiaris; conditions: in vivo
# [14] = Clearance in Sprague-Dawley rat at 1 mg/kg, iv or 5 mg/kg, po by LC-MS/MS analysis; type: ADME, organism-based; conditions: in vivo
# HT-29 = assay: Antitumor activity against human HT-29 cells xenografted in athymic nude mouse assessed as tumor growth inhibition at 15 mg/kg, po qd measured on day 21; type: functional; conditions: HT-29, po, 504 h, read-out: TGI
# [15] = AUC (0 to infinity) in Sprague-Dawley rat at 5 mg/kg, po by LC-MS/MS analysis; type: ADME, organism-based; parameters: dose 5 mg/kg, time infinity, route oral; conditions: in vivo
# Sequence of Cytochrome P450 3A4 (P08684 whole entry): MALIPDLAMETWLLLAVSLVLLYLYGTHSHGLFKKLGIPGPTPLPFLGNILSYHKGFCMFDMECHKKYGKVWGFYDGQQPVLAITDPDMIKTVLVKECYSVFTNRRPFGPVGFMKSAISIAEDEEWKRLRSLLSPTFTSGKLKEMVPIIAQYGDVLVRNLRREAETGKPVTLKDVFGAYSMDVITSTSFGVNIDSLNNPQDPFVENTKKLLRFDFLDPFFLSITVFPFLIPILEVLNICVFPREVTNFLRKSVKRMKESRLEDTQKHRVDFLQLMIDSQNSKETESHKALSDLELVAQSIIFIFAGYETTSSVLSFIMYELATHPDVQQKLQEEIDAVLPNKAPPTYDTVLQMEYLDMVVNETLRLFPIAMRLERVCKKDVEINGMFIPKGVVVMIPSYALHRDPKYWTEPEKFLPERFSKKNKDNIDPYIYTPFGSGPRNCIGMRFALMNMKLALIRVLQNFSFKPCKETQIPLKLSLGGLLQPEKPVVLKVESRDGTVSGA
SMILES,GI50 (MDA-MB-468) [µM],solubility [1] [µg/mL],pKa [2],GI50 (OVCAR-3) [µM],IC50 [3] [µM],solubility [4] [µg/mL],GI50 (HCT-116 [5]) [µM],AUC [6] [ng·h/mL],Cmax [7] [ng/mL],MTD [8] [mg/kg],IC50 (Cytochrome P450 3A4) [µM],bioavailability [9] [%],inhibition in vivo at 15 mg/kg (HCT-116 [10]) [%],clearance [11] [mL/min/kg],AUC(0-inf) [12] [ng·h/mL],bioavailability [13] [%],clearance [14] [mL/min/kg],inhibition in vivo at 15 mg/kg (HT-29) [%],AUC(0-inf) [15] [ng·h/mL]
Cc1cc(-c2cnn3c(NCC4CCOCC4)cc(N[C@@H]4CCCC[C@H]4O)nc23)ccc1C(=O)NC1CC1,0.18,410,3.3,0.34,0.013,13,0.13,,,,,,,,,,,,
Cc1cc(-c2cnn3c(NCC4CCOCC4)nc(NC4CCCC4)nc23)ccc1C(=O)NC1CC1,0.32,28,2.7,0.48,0.0058,3.6,0.13,530,430,,,,,,,,,,
Cc1cc(-c2cnn3c(NCC4CCOCC4)cc(NC4CCCC4)nc23)ccc1C(=O)NC1CC1,0.036,88,3.2,0.09,0.0032,3.1,0.015,4000,2300,,,,,,,,,,
CC[C@H](CO)Nc1cc(NCC2CCOCC2)n2ncc(-c3ccc(C(=O)NC4CC4)c(C)c3)c2n1,0.48,1100,3.5,1.1,0.021,27,0.21,,,,,,,,,,,,
Cc1cc(-c2cnn3c(NCC4CCOCC4)cc(N[C@H]4CCCC[C@H]4O)nc23)ccc1C(=O)NC1CC1,0.003,410,3.3,0.009,0.002,13,0.001,2400,2200,,,,,,,,,,
Cc1cc(-c2cnn3c(NC[C@H]4C[C@](C)(O)C4)cc(NC4CCCC4)nc23)ccc1C(=O)NC1CC1,0.13,110,3.2,0.21,0.0053,3.6,0.049,,,,,,,,,,,,
Cc1cc(-c2cnn3c(NCCN4CCOCC4)cc(Oc4ccccc4)nc23)ccc1C(=O)NC1CC1,0.018,12000,6.7,0.024,0.003,1.6,0.011,2700,1000,,,,,,,,,,
Cc1cc(-c2cnn3c(NCC4CCOCC4)cc(N[C@@H](C4CC4)C(C)(C)O)nc23)ccc1C(=O)NC1CC1,0.06,470,3.5,0.08,0.007,10,0.02,20000,5500,15,3,38,70,13,6900,98,66,38,490
Cc1cc(-c2cnn3c(NCC4CCOCC4)cc(N[C@H]4CCC[C@H]4O)nc23)ccc1C(=O)NC1CC1,0.062,480,3.2,0.079,0.0027,23,0.059,1500,1300,,,,,,,,,,
Cc1cc(-c2cnn3c(NCC4CCOCC4)nc(Oc4ccccc4)nc23)ccc1C(=O)NC1CC1,0.16,1.5,1.6,0.19,0.0014,1.1,0.014,1500,890,,,,,,,,,,
Cc1cc(-c2cnn3c(NCC4CCOCC4)cc(Oc4ccccc4)nc23)ccc1C(=O)NC1CC1,0.013,12,3.4,0.022,0.0025,0.5,0.003,3100,560,,,,,,,,,,
Cc1cc(-c2cnn3c(NC[C@H]4C[C@](C)(O)C4)cc(Oc4cccnc4)nc23)ccc1C(=O)NC1CC1,0.071,560,3.7,0.1,,3.3,0.04,3900,1800,,,,,,,,,,
Cc1cc(-c2cnn3c(NC[C@H]4C[C@H](O)C4)cc(Oc4cccnc4)nc23)ccc1C(=O)NC1CC1,0.002,930,3.7,0.011,0.0011,5.4,0.002,130,120,,,,,,,,,,
Cc1cc(-c2cnn3c(NC[C@H]4CC[C@@H](O)CC4)cc(Oc4cccnc4)nc23)ccc1C(=O)NC1CC1,0.019,360,3.7,0.043,0.0018,2.1,0.017,3400,750,,,,,,,,,,
"Cc1cc(-c2cnn3c(NCC4CC4)cc(NC4CCCC[C@H]4O)nc23)ccc1C(=O)NC1CC1 (single isomer, unassigned)",0.02,170,3.4,0.015,0.0022,5.3,0.009,3100,1700,15,2,94,72,7.9,14000,95,22,53,3700
Cc1cc(-c2cnn3c(NC[C@H]4C[C@H](O)C4)cc(NC4CCCC4)nc23)ccc1C(=O)NC1CC1,0.035,930,3.7,0.068,0.0024,5.4,0.014,130,180,,,,,,,,,,
Cc1cc(-c2cnn3c(NC[C@H]4CC[C@H](O)CC4)cc(Oc4cccnc4)nc23)ccc1C(=O)NC1CC1,0.16,360,3.7,0.27,0.0028,2.1,0.05,700,190,,,,,,,,,,
Cc1cc(-c2cnn3c(NC[C@H]4C[C@@](C)(O)C4)cc(NC4CCCC4)nc23)ccc1C(=O)NC1CC1,0.057,110,3.2,0.087,0.0026,3.6,0.014,7300,2900,,,,,,,,,,
